From US20260092036A1, “CRYSTALLINE SALTS OF A T-TYPE CALCIUM CHANNEL MODULATOR AND METHODS OF USE THEREOF” (Praxis Precision Medicines, Inc., priority 2023, published 2026)

What was measured:
Type in all cases: physicochemical
[1] = Solid form stability on heating (XRPD, hot stage microscopy); conditions: hydrochloride salt trihydrate
Method: Amorphous material was generated through ball milling in the experiments with the goal to obtain a new crystalline form. […] Pattern D was determined to be a channel trihydrate, the form identification was confirmed by Single Crystal XRD.
FIG. 5 is an overlay of XRPD spectra of Pattern D heated to 90° C. and cooled back to room temperature; Pattern D heated to 150° C. and cooled back to room temperature; as well as Pattern C and Pattern D reference spectra.
FIG. 6 is an image of Pattern D heated to different temperatures obtained using hot stage microscopy (HSM).

[2] = Dynamic Vapor Sorption (DVS) on Pattern D
[3] = Water solubility of crystalline forms measured by HPLC
Method: Water solubility of Pattern D was measured by HPLC to determine how much the water solubility drops between Pattern C and Pattern D. To measure the solubility of Pattern D in H2O, ˜150 mg of Pattern D was slurried for 2 weeks at RT in 1 mL of H2O.

CC(C)(C)NC(=O)CN1CCC(CNC(=O)c2cc(F)cc(Cl)c2)CC1.Cl [Pattern D, N-((1-(2-(tert-butylamino)-2-oxoethyl)piperidin-4-yl)methyl)-3-chloro-5-fluorobenzamide hydrochloride salt trihydrate]
form conversion on heating (XRPD) ([1]; heated to 90° C. and cooled back to room temperature): no form conversion
form on further heating (XRPD) ([1]; heated to 150° C. and cooled back to room temperature): turns amorphous
mass gained in DVS ([2]; at 80% RH): ~10.45%
water re-adsorbed after desolvation in DVS ([2]; by RH of 20%, after loss of moisture at RH close to 0): approximately 10.5%
form change post DVS (XRPD) ([2]; post DVS): no clear form change
form conversion after slurry in H2O (XRPD) ([3]; 2-week slurry in H2O at RT): no form conversion
solubility at 2 weeks ([3]; water, thermodynamic from solid): 77.2 mg/mL
